From ChEMBL document CHEMBL5247642, “Structural Optimization of Fibroblast Growth Factor Receptor Inhibitors for Treating Solid Tumors” (J Med Chem, 2023)
Active and inactive are the calls of the source. The rule behind the calls is not given here.

How the values were obtained:
[1] = target: T1, Fibroblast growth factor receptor 4 (Homo sapiens, UniProt P22455); assay: Inhibition of FGFR4 (unknown origin) using Poly (Glu,Tyr) 4:1 as substrate incubated for 60 mins in presence of ATP by ELISA analysis
[2] = Stability in rat whole blood assessed as parent compound remaining measured after 2 hrs by LC-MS/MS analysis; assay type: ADME, tissue-based; conditions: read-out: Stability
[3] = GSH reactivity in PBS buffer assessed as percentage peak area ratio incubated for 24 hrs by LC-MS/MS analysis; assay type: physicochemical
[4] = target: T2, Fibroblast growth factor receptor (Homo sapiens) (UniProt P22607+P11362+P22455+P21802); assay: Inhibition of FGFR signalling in human SNU-16 assessed as inhibition of pErk phosphorylation at 0.1 nM incubated for 2 hrs by Western blot analysis; assay type: cell-based
[5] = target: T2, Fibroblast growth factor receptor (Homo sapiens); assay: Inhibition of FGFR signalling in human SNU-16 assessed as inhibition of PLCgamma phosphorylation at 0.1 nM incubated for 2 hrs by Western blot analysis; assay type: cell-based
[6] = target: T2, Fibroblast growth factor receptor (Homo sapiens); assay: Inhibition of FGFR phosphorylation in human SNU-16 cells at 5 nM measured after 12 hrs; assay type: cell-based
[7] = target: T2, Fibroblast growth factor receptor (Homo sapiens); assay: Inhibition of FGFR phosphorylation in human SNU-16 cells at 5 nM measured after 24 hrs; assay type: cell-based
[8] = target: Voltage-gated inwardly rectifying potassium channel KCNH2 (Homo sapiens, UniProt Q12809); assay: Inhibition of hERG expressed in CHO cells at -80 mV holding potential by automated patch clamp method; assay type: toxicity, cell-based
[9] = target: Vascular endothelial growth factor receptor 1 (Homo sapiens) (UniProt P17948); assay: Inhibition of VEGFR1 (unknown origin) at 1 uM using Poly (Glu,Tyr) 4:1 as substrate incubated for 60 mins in presence of ATP by ELISA analysis relative to control
[10] = target: Vascular endothelial growth factor receptor 2 (Homo sapiens) (UniProt P35968); assay: Inhibition of VEGFR2 (unknown origin) at 1 uM using Poly (Glu,Tyr) 4:1 as substrate incubated for 60 mins in presence of ATP by ELISA analysis relative to control
[11] = target: Fibroblast growth factor receptor 1 (Homo sapiens, UniProt P11362, V561M); assay: Inhibition of human recombinant FGFR1 V561M mutant (456 to 765 residues) using GGEEEEYFELVKK as substrate incubated for 40 mins presence of [gamma-33P]-ATP by radiometric based scintillation counter assay
NCI-H716 [12] = assay: Antiproliferative activity against human NCI-H716 cells expressing FGFR2 assessed as reduction in cell viability measured after 72 hrs; assay type: functional, cell-based; conditions: NCI-H716, 72 h
NCI-H1666 = assay: Antiproliferative activity against human NCI-H1666 cells assessed as reduction in cell viability measured after 72 hrs; assay type: functional, cell-based; conditions: NCI-H1666, 72 h
NCI-H727 = assay: Antiproliferative activity against human NCI-H727 cells assessed as reduction in cell viability measured after 72 hrs; assay type: functional, cell-based; conditions: NCI-H727, 72 h
NCI-H226 = assay: Antiproliferative activity against human NCI-H226 cells assessed as reduction in cell viability measured after 72 hrs; assay type: functional, cell-based; conditions: NCI-H226, 72 h
HCC4006 = assay: Antiproliferative activity against human HCC4006 cells assessed as reduction in cell viability measured after 72 hrs; assay type: functional, cell-based; conditions: HCC4006, 72 h
SU.86.86 = assay: Antiproliferative activity against human SU-86-86 cells assessed as reduction in cell viability measured after 72 hrs; assay type: functional, cell-based; conditions: SU.86.86, 72 h
CAPAN-1 = assay: Antiproliferative activity against human CAPAN-1 cells assessed as reduction in cell viability measured after 72 hrs; assay type: functional, cell-based; conditions: CAPAN-1, 72 h
EBC-1 = assay: Antiproliferative activity against human EBC-1 cells assessed as reduction in cell viability measured after 72 hrs; assay type: functional, cell-based; conditions: EBC-1, 72 h
NCI-H2286 = assay: Antiproliferative activity against human NCI-H2286 cells assessed as reduction in cell viability measured after 72 hrs; assay type: functional, cell-based; conditions: NCI-H2286, 72 h
NCI-H1299 = assay: Antiproliferative activity against human NCI-H1299 cells assessed as reduction in cell viability measured after 72 hrs; assay type: functional, cell-based; conditions: NCI-H1299, 72 h
[13] = Tmax in CD-1 mouse at 3 mg/kg, po measured after 24 hrs by LC-MS/MS analysis; assay type: ADME, organism-based; conditions: in vivo
[14] = AUC (0 to t) in CD-1 mouse at 3 mg/kg, po measured after 24 hrs by LC-MS/MS analysis; assay type: ADME, organism-based; parameters: time 24 hrs, dose 3 mg/kg, route po; conditions: in vivo
[15] = Oral bioavailability in CD-1 mouse at 3 mg/kg measured after 24 hrs by LC-MS/MS analysis; assay type: ADME, organism-based; conditions: in vivo
[16] = target: T1, Fibroblast growth factor receptor 4; assay: Inhibition of FGFR4 (unknown origin)
NCI-H716 [17] = assay: Antitumor activity against human NCI-H716 cells xenografted in nude mouse assessed as tumor growth inhibition at 400 mg/kg, po administered once daily for 18 days by microcaliper analysis; assay type: functional, organism-based; conditions: time 18.0 day
SNU-16 = assay: Antitumor activity against human SNU-16 cells xenografted in nude mouse assessed as tumor growth inhibition at 200 mg/kg, po administered once daily for 21 days by microcaliper analysis relative to control; assay type: functional; parameters: scale not given: the % may be the effect or the level left; conditions: time 21 day
[18] = target: Fibroblast growth factor receptor 1 (Homo sapiens, UniProt P11362); conditions: dose 100.0 nM, time 60.0 min

T2 sequence (P11362 whole entry, looked up): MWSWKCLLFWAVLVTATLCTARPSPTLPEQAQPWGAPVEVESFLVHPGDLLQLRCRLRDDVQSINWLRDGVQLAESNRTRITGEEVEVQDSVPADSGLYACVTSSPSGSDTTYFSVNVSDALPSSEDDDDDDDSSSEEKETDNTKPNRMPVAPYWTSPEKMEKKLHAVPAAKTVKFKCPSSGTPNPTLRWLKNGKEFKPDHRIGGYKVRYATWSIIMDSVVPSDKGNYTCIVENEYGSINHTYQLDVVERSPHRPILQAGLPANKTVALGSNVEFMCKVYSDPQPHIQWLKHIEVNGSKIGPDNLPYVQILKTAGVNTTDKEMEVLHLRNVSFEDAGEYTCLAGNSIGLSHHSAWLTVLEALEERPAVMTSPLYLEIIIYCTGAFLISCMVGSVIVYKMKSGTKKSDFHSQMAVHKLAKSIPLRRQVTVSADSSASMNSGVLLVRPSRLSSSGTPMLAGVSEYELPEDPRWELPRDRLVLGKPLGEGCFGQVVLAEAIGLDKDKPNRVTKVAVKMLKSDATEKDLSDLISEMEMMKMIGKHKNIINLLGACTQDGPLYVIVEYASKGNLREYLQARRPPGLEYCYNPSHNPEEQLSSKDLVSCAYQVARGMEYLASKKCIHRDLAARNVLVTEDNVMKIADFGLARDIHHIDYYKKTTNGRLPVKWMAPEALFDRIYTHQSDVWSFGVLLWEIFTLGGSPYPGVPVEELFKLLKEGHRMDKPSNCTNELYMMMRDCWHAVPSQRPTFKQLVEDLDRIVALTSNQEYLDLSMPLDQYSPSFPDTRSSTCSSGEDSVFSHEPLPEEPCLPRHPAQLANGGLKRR
T2 sequence (P21802 whole entry, looked up): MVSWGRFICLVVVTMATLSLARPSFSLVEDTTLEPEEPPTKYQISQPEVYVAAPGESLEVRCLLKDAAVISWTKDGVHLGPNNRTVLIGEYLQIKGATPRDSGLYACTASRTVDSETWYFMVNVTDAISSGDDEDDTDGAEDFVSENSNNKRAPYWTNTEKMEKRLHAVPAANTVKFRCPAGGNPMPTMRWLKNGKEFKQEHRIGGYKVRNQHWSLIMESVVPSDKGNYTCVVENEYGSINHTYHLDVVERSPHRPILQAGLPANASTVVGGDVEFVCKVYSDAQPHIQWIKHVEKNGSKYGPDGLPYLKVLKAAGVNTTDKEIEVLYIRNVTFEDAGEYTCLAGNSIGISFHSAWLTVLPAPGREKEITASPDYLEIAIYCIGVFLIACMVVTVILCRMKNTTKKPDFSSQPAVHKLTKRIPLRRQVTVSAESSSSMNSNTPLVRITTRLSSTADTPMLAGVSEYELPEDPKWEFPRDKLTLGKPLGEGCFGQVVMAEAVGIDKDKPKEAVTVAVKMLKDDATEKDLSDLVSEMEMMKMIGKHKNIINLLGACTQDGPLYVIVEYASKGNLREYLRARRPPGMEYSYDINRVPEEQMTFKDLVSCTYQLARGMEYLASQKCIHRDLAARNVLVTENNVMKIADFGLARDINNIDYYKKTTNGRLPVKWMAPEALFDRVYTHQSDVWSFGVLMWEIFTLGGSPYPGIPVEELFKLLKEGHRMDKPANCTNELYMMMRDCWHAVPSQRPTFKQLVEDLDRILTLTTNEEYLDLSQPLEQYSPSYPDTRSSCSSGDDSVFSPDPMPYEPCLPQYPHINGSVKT
T2 sequence (P22455 whole entry, looked up): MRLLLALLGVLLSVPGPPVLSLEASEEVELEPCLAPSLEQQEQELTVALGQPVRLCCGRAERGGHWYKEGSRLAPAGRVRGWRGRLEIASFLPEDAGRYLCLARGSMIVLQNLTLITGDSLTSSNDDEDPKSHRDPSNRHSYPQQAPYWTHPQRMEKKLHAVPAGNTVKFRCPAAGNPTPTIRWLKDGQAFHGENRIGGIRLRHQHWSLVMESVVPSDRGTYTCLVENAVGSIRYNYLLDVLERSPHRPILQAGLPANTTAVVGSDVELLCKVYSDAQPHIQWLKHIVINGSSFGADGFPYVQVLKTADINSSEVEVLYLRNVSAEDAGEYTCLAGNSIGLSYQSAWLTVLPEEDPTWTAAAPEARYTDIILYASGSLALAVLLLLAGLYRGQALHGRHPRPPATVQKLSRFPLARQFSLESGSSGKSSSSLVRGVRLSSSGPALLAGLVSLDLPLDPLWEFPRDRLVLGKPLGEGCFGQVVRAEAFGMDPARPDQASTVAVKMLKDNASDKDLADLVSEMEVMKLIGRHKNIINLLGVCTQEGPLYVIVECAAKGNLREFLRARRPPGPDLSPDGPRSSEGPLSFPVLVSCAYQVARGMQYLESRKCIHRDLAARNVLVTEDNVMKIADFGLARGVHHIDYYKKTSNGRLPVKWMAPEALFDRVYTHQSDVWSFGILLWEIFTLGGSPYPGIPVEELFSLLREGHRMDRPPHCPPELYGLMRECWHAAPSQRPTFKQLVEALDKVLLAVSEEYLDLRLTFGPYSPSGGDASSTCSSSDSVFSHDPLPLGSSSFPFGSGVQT
T2 sequence (P22607 whole entry, looked up): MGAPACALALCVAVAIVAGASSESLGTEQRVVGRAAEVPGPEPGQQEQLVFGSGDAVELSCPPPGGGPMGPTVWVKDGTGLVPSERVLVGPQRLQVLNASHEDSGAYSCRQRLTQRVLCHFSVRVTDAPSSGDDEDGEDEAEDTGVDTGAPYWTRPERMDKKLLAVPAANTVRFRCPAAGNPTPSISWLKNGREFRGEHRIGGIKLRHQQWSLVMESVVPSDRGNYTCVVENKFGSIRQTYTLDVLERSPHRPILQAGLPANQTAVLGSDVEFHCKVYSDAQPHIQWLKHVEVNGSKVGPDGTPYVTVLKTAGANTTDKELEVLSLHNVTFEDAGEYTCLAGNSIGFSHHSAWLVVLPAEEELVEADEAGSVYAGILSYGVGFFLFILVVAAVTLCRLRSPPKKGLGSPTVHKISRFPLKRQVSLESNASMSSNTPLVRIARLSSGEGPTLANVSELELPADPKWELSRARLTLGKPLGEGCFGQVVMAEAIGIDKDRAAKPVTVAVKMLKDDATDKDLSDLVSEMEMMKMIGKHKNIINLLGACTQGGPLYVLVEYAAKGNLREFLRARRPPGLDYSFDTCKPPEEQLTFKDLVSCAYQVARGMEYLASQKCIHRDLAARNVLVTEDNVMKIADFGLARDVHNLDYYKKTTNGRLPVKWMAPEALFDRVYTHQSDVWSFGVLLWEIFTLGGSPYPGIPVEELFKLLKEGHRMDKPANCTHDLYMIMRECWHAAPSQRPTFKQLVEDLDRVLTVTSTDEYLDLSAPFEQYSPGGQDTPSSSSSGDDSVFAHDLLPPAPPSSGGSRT
T1 sequence (P22455 whole entry): as the sequence (P22455 whole entry, looked up) above
Sequence of Voltage-gated inwardly rectifying potassium channel KCNH2 (Q12809 whole entry): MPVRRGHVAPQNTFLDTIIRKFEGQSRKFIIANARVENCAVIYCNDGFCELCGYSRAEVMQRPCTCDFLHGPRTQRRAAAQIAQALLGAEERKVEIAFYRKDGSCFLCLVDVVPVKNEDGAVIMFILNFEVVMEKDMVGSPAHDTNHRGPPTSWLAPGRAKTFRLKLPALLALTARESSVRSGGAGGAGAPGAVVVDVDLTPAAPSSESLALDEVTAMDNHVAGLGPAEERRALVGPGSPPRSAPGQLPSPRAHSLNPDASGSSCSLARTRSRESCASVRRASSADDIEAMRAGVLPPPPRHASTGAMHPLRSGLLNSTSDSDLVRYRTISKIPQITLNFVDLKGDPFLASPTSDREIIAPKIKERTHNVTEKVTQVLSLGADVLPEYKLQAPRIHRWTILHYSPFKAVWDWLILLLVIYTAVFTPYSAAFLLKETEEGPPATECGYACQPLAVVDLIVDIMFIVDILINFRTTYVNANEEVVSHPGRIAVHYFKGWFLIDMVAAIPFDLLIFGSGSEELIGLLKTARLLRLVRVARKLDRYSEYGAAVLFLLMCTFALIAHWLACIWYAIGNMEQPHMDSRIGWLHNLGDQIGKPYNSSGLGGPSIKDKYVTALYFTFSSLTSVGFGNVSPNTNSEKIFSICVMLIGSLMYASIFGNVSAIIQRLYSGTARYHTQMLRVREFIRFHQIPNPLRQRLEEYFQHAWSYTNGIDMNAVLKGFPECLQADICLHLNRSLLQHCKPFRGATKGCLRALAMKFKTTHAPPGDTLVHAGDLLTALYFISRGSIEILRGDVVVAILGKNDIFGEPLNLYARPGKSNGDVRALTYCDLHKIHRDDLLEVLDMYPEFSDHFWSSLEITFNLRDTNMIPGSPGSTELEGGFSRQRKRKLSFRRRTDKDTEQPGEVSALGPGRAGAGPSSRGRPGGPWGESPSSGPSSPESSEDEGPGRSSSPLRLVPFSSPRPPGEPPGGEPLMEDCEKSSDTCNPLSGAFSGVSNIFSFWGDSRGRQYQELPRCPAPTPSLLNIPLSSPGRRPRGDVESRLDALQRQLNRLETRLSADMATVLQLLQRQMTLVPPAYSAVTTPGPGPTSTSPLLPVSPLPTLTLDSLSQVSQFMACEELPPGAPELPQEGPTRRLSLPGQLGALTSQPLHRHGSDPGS

- IC50 [1]: 0.155 µM
- remaining at 2 h [2]: > 40%
- Activity [3]: 65%
- inhibition [4]: Active
- inhibition [5]: Active
- inhibition [6]: Active
- inhibition [7]: Active
- inhibition [9]: < 50%
- inhibition [10]: < 50%
- IC50 [11]: > 5 µM
- IC50 (NCI-H716 [12]): 0.0032 µM
- IC50 (NCI-H1666): > 10 µM
- IC50 (NCI-H727): > 10 µM
- IC50 (NCI-H226): > 10 µM
- IC50 (HCC4006): > 10 µM
- IC50 (NCI-H2286): > 10 µM
- IC50 (NCI-H1299): > 10 µM
- Tmax [13]: 15 min
- AUC(0-t) at 24 h [14]: 70.2 ng·h/mL
- bioavailability [15]: 20.4%
- IC50 [16]: 0.0061 µM
- inhibition [18]: 102%
Structure (SMILES): C=CC(=O)N1CCCC(n2nc3c(=O)[nH]nc(N)c3c2-c2oc3ccc(C)cc3c2C)C1 (stereo not drawn)
- IC50 [8]: 17.2 µM
- IC50 (SU.86.86): > 10 µM
- IC50 (CAPAN-1): > 10 µM
- IC50 (EBC-1): > 10 µM
- Activity (NCI-H716 [17]): Active
- Activity (SNU-16): 68.4%
